Patent EP0793496B1, “USE OF HALOGENATED beta-[…] MODEL […] PRODUCE NEURODEGENERATIVE DISORDERS” (priority 1994, dated 1996)

Assays:
[1] = tested on: Dopaminstoffwechsel im Striatum; experiment: In vivo differential pulse voltammetry of the DOPAC signal in the striatum after unilateral intranigral injection; parameters: species or system Ratte; settings: for DOPAC-Signal im ipsilateralen Striatum: 10 µg in 2 µl intranigral, before L-DOPA
Description: Die 1-Trichlormethyl-β-carboline TaClo und N-Me-TaClo wurden im Vergleich zu den bekannten Neurotoxinen MPTP und MPP^+, wie folgt, auf ihre neurotoxische Wirkung überprüft. Die zu untersuchenden Substanzen (TaClo, N-Me-TaClo, DDH-TaFlu, TaBro, MPTP und MPP^+) wurden unter Narkose mit einer Mikroglaskapillare stereotaktisch nach Koordinaten (A: 4,0 mm; L: 1,9 mm; V: 2,0 mm; ab Interaurallinie) von Paxinos und Watson (1982) unilateral in die rechte Substantia nigra pars compacta der Ratte (Han-Wistar, Zentralinstitut für Versuchstierzucht, Hannover, 250-300 g) injiziert. Appliziert wurde ein Volumen von 2 µl über einen Zeitraum von 15 Minuten.
Im Striatum, dem Projektionsareal der nigralen dopaminergen Neurone, wurde 1 und/oder 3 Wochen nach Applikation der Substanzen der Transmitterstoffwechsel untersucht. Die Untersuchung des Dopaminstoffwechsels wurde dabei in beiden Striata, dem linken Striatum, Projektionsgebiet der unbehandelten linken Substantia nigra, und dem rechten Striatum, Projektionsgebiet der behandelten rechten Substantia nigra, durchgeführt. Die Messung des Dopaminstoffwechsels erfolgte mit Hilfe der in vivo differentiellen Pulsvoltametrie (DPV) mit Mikrokohlefaserelektroden, wie sie 1980 von Gonon beschrieben wurde (Gonon et al., 1980). Dabei werden die extrazellulären Spiegel an 3,4-Dihydroxyphenylessigsäure (DOPAC) erfaßt, einem Metaboliten des Transmitters Dopamin. Die Messung wurde am narkotisierten Tier durchgeführt. Die stereotaktische Implantation von 2 Elektroden (rechtes und linkes Striatum) erfolgte nach Koordinaten (A: 8,5 mm; L: ± 3,5 mm; V: 4,5 mm; ab Interaurallinie) von Paxinos und Watson (Paxinos und Watson, 1982). Die voltametrischen Messungen wurden im Abstand von 8 Minuten durchgeführt. 40 Minuten nach Beginn der Messungen applizierte man den Tieren L-DOPA (100 mg/kg i.p.), um die Restitutionsfähigkeit des Dopaminstoffwechsels durch dieses Anti-Parkinsonmittel zu überprüfen.

[2] = tested on: Substantia nigra pars compacta; experiment: Histology of the substantia nigra pars compacta after unilateral intranigral injection (neuron count, tyrosine hydroxylase staining); assay type: in vivo, Ratte
Description: Die ersten Untersuchungen von drei mit TaClo behandelten Ratten mit quantitativer Auswertung der Substantia nigra pars compacta zeigen, daß TaClo, in einer Konzentration von 0.03 µmol einseitig in die Substantia nigra injiziert, bereits nach einer Woche zu einer eindeutigen Reduktion der Neuronenzahl von 12% auf der läsionierten Seite führt. 6-OHDA, in einer annähernd doppelt so hohen Konzentration von 0.05 µmol injiziert, bewirkt einen 51% Abfall der Neuronenzahl.
Nach Anfärbung der Tyrosinhydroxylase mittels Antikörpern zur Darstellung dopaminerger Neurone zeichnen sich pathologische Veränderungen ab, die nach Behandlung mit TaClo auf der läsionierten Seite zu 3 - 6% nekrotischem Gewebsanteil am Gesamtvolumen führen. Bei 6-OHDA beträgt dieser Anteil 25%.

dopaminerge Rezeptoren = experiment: Apomorphine test (Ungerstedt): locomotor activity after subchronic TaClo i.p.; assay type: in vivo, Ratte; settings: TaClo (Hydrochlorid) 0.2 mg/kg i.p. for four weeks, then apomorphine s.c.
Method: Eine durch Neurotoxine verursachte Denervation des postsynaptischen Rezeptors im dopaminergen System führt zu einer Rezeptorüberempfindlichkeit. Dadurch wird die Reaktion gegenüber verabreichten DA-Agonisten (z.B. Apomorphin) größer. Zur Überprüfung einer z.B. TaClo-bedingten Überempfindlichkeit dopaminerger Rezeptoren wird der Apomorphin-Test nach Ungerstedt (Ungerstedt et al., 1971) benutzt. Dieser läßt nach s.c. Injektion von 0.4 oder 2 mg/kg Apomorphin bei einseitiger Läsion des dopaminergen Systems im Versuchstier in den für die Entstehung des Morbus Parkinson ausschlaggebenden Basalganglien contralaterale Drehungen erkennen und nach mehr oder weniger beidseitiger Schädigung dopaminerger Strukturen bei geringem Schädigungsgrad vermehrte, bei hohem Schädigungsgrad verminderte Lokomotion im Vergleich zum Kontrollkollektiv sichtbar werden.
Die Verhaltensbeobachtungen fanden während und nach einstündiger Adaption in Beobachtungskäfigen statt. Die Aufzeichnung einzelner spezifischer Parameter wie gelaufene Wegstrecke [DT], Zeit ambulatorischer Bewegungen [AT], Anzahl stereotyper Bewegungen [BMS] und Zeiten stereotyper Bewegungen erfolgte automatisch. […]

[3] = tested on: Tyrosinhydroxylase-immunoreaktive Neuronen (TH-IR); experiment: Primary neuron cell culture: number and morphology of TH-IR neurons after 24 h; assay type: cell-based; settings: for Zahl der TH-IR Zellen/ Kulturschale: added on culture day 9, mean ± S.D.
Description: (§1) In der Zellkultur zeigen 1-Trichlormethyl-β-carboline neurotoxische Eigenschaften, die mit denen von MPP^+ bzw. MPTP, den bisher bestuntersuchten dopaminergen Neurotoxinen, vergleichbar sind. Das neurotoxische Potential der chlorierten β-Carboline wurde daher mit Methoden untersucht, die sich beim Studium der Wirkung von MPTP und seiner Analoga bewährt haben (Koutsilieri et al., 1993; Michel et al., 1990; Sanchez-Ramos et al., 1988) Deutliche degenerative Veränderungen sind in vitro im Akutversuch bei einer Einwirkungszeit von 24 Stunden ab einer Konzentration von 10 - 100 µM feststellbar. Die Substanzen führen zum Zelltod dopaminerger Primärzellen aus dem Mesencephalon - Zellen, die den bei Morbus Parkinson betroffenen Neuronen des Menschen entsprechen. Dem Zelltod dieser immunhistochemisch eindeutig charakterisierten Neuronen (Antikörper auf Tyrosinhydroxylase) gehen morphologische Veränderungen der Zellen voraus. Dabei nimmt die Gesamt-Zelloberfläche ab, die Dendriten und Axone, (zuerst die sekundären und dann die primären Zellfortsätze) gehen verloren. Diese histologischen Befunde (vgl. auch Tabelle 2) wurden durch bildgebende Verfahren erhärtet und quantifiziert. Die 1-Trichlormethyl-β-carboline zeigen auch toxische Eigenschaften in Gliazellkulturen, wie durch histologische Befunde nachgewiesen werden konnte. Für die Gruppe der 1-Trichlormethyl-β-carboline läßt sich eine Beeinflussung der synaptischen Transmitterkonzentration erwarten, wie an Versuchen mit der Grundstruktur TaClo nachgewiesen werden konnte, deren Zusatz konzentrationsabhängig (IC50 50 µM) zu einer Freisetzung von Dopamin aus den Zellkulturen führt. Dies wurde durch Dopaminbestimmung in den Kulturen mit Hilfe der Hochdruckflüssigkeitschromatographie und elektrochemischer Detektion nachgewiesen. Der Einsatz von ^3H-markiertem Dopamin für Aufnahmestudien weist eine Interaktion der 1-Trichlormethyl-β-carboline mit den Dopaminaufnahmestellen in Zellkulturen nach, die eine wichtige Voraussetzung für die Aufnahme dieser Substanzen in das dopaminerge Neuron und die Entfaltung der neurotoxischen Wirkung darstellen (IC50 für TaClo 100 µM) (vgl. Tabelle 2).

[4] = tested on: dopaminerge Primärzellen aus dem Mesencephalon; experiment: Dopamine content / dopamine release in the cell cultures (HPLC with electrochemical detection); assay type: cell-based; settings: for Dopamingehalt: 24 h, mean ± S.D.
Description: as §1, with “Der Einsatz von ^3H-markiertem Dopamin für Aufnahmestudien weist eine Interaktion der 1-Trichlormethyl-β-carboline mit den Dopaminaufnahmestellen in Zellkulturen nach, die eine wichtige Voraussetzung für die Aufnahme dieser Substanzen in das dopaminerge Neuron und die Entfaltung der neurotoxischen Wirkung darstellen (IC50 für TaClo 100 µM) (vgl. Tabelle 2).” left out

Dopaminaufnahmestellen = Dopaminaufnahmestellen (Mus musculus, UniProt Q61327); experiment: 3H-dopamine uptake in cell cultures; assay type: cell-based; settings: 24 h, mean ± S.D.
Description: as §1, with “Der Einsatz von ^3H-markiertem Dopamin für Aufnahmestudien weist eine Interaktion der 1-Trichlormethyl-β-carboline mit den Dopaminaufnahmestellen in Zellkulturen nach, die eine wichtige Voraussetzung für die Aufnahme dieser Substanzen in das dopaminerge Neuron und die Entfaltung der neurotoxischen Wirkung darstellen (IC50 für TaClo 100 µM) (vgl. Tabelle 2).” left out

Chain of Dopaminaufnahmestellen (Q61327 whole entry): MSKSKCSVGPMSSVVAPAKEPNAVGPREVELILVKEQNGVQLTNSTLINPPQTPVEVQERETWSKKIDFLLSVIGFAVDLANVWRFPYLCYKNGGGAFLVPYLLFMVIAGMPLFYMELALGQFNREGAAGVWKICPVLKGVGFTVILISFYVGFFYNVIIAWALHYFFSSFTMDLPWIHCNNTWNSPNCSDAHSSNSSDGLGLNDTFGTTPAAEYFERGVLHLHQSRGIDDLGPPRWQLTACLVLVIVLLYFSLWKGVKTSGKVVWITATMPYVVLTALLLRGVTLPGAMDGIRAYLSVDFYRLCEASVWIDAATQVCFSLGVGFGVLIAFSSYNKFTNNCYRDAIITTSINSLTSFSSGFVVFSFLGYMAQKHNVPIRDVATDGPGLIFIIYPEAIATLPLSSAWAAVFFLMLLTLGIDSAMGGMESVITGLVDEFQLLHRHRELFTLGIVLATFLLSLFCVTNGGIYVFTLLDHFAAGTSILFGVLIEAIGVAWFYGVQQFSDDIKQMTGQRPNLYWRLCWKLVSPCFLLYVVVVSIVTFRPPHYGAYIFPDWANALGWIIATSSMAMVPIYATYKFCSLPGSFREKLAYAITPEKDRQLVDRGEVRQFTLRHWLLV

CN1CCc2c([nH]c3ccccc23)C1C(Cl)(Cl)Cl (centres unmarked) [N-Me-TaClo]
DOPAC-Signal im ipsilateralen Striatum ([1]; 1 week): signifikant | DOPAC-Signal im ipsilateralen Striatum ([1]; 3 weeks): signifikant

NCCc1cc(O)c(O)cc1O [6-OHDA, 6-hydroxydopamine, reference compound]
Abfall der Neuronenzahl ([2]; 0.05 µmol injected): 51% | nekrotischer Gewebsanteil am Gesamtvolumen ([2]; 6-OHDA (0.05 µmol), tyrosine hydroxylase antibody staining): 25%

C[n+]1ccc(-c2ccccc2)cc1 [MPP^+, 1-Methyl-4-Phenylpyridinium, reference compound]
DOPAC-Signal auf der injizierten Seite ([1]; MPP^+ 30 µg in 2 µl intranigral, 1 and 3 weeks): hochsignifikante (p < 0.01) langanhaltende Verringerung des DOPAC-Signals | Restitutionsfähigkeit des dopaminergen Systems durch DOPA ([1]; MPP^+ 30 µg in 2 µl intranigral, 1 week, L-DOPA 100 mg/kg i.p.): mangelnde Restitutionsfähigkeit

ClC(Cl)(Cl)C1NCCc2c1[nH]c1ccccc21 (racemic) [TaClo]
lokomotorische Aktivität nach Apomorphin (dopaminerge Rezeptoren): stieg nach der kleineren Dosierung signifikant an | DOPAC-Signal im ipsilateralen Striatum ([1]; 1 week): signifikant geringere DOPAC-Konzentration | DOPAC-Signal im ipsilateralen Striatum ([1]; 3 weeks): signifikant geringere DOPAC-Konzentration | Reduktion der Neuronenzahl auf der läsionierten Seite ([2]; 0.03 µmol injected unilaterally into the substantia nigra, after one week, three rats): 12% | nekrotischer Gewebsanteil am Gesamtvolumen auf der läsionierten Seite ([2]; TaClo treatment (0.03 µmol), tyrosine hydroxylase antibody staining): 3 - 6% | Zahl der TH-IR Zellen/ Kulturschale ([3]; TaClo 10 µM): 172 ± 69 | Länge der Fortsätze ([3]; TaClo 10 µM, mean ± S.D.): 80 ± 20 µm | Zahl der primären Fortsätze ([3]; TaClo 10 µM, mean ± S.D.): 3.1 ± 1.1 | Zahl der sekundären Fortsätze ([3]; TaClo 10 µM, mean ± S.D.): 2.6 ± 1.6 | Zellfläche ([3]; TaClo 10 µM, mean ± S.D.): 180 ± 49 µm^2 | Zahl der TH-IR Zellen/ Kulturschale ([3]; TaClo 25 µM): 164 ± 67 | Länge der Fortsätze ([3]; TaClo 25 µM, mean ± S.D.): 70 ± 20 µm | Zahl der primären Fortsätze ([3]; TaClo 25 µM, mean ± S.D.): 2.9 ± 1.0 | Zellfläche ([3]; TaClo 25 µM, mean ± S.D.): 192 ± 47 µm^2 | Zahl der TH-IR Zellen/ Kulturschale ([3]; TaClo 50 µM): 128 ± 47 | Länge der Fortsätze ([3]; TaClo 50 µM, mean ± S.D.): 70 ± 30 µm | Zahl der primären Fortsätze ([3]; TaClo 50 µM, mean ± S.D.): 2.6 ± 1.3 | Zellfläche ([3]; TaClo 50 µM, mean ± S.D.): 159 ± 18 µm^2 | Zellfläche ([3]; TaClo 100 µM, mean ± S.D.): 185 ± 43 µm^2 | Dopamingehalt ([4]; TaClo 10 µM): 0.7 ± 0.2 pmoles/ Kulturschale | Dopamingehalt ([4]; TaClo 25 µM): 0.6 ± 0.2 pmoles/ Kulturschale | IC50 ([4]; concentration dependent, dopamine determined by HPLC with electrochemical detection, read-out: IC50 Freisetzung von Dopamin aus den Zellkulturen): 50 µM | ^3H-DA uptake (Dopaminaufnahmestellen; TaClo 10 µM): 0.05 ± 0.01 pmoles/ Kulturschale | ^3H-DA uptake (Dopaminaufnahmestellen; TaClo 25 µM): 0.05 ± 0.01 pmoles/ Kulturschale | ^3H-DA uptake (Dopaminaufnahmestellen; TaClo 50 µM): 0.05 ± 0.01 pmoles/ Kulturschale

FC(F)(F)C1=NCCc2c1[nH]c1ccccc21 [DDH-TaFlu, 1-Trifluormethyl-3,4-didehydro-β-carbolin]
DOPAC-Signal im ipsilateralen Striatum ([1]; 1 week): stärkere Reduktion des DOPAC-Signals

CN1CC=C(c2ccccc2)CC1 [MPTP, 1-Methyl-4-phenyl-1,2,3,6-tetrahydropyridin, reference compound]
Kompensation des Neuronenverlusts durch L-DOPA ([1]; MPTP 174 µg in 2 µl intranigral, 1 and 3 weeks, L-DOPA 100 mg/kg i.p.): kompensieren konnte | DOPAC-Wert auf der läsionierten Seite vor L-DOPA ([1]; MPTP 174 µg in 2 µl intranigral, 1 week, intact side about 20%, p < 0.05): ~6% | Erniedrigung des DOPAC-Signals ([1]; MPTP 174 µg in 2 µl intranigral, 3 weeks): statistisch nicht mehr signifikant
